Calls of active or inactive are those of the source. How the calls were made is not given here.
Molecular target: glucose-6-phosphate dehydrogenase-6-phosphogluconolactonase (Plasmodium falciparum 3D7)
Assay: concentration-dependent PfGluPho enzyme inhibition – biochemical, fluorescence intensity, dose response (AID 504765)
Details: Recombinant PfG6PD enzyme, fluorescence intensity (NADPH)

Compound	IC50
CN(CCO)c1cc(Sc2nc3ccccc3s2)c2nonc2c1[N+](=O)[O-]	11.1 µM
O=C(Nc1nnc(S(=O)(=O)N2CCCCCC2)s1)c1cccc(Br)c1	15.1 µM
N#Cc1ccc(Oc2cccc3cccnc23)c([N+](=O)[O-])c1	5.66 µM
COC(=O)C1=C(C(=O)OC)SC2(S1)C(C(=O)OC)=C(C(=O)OC)Sc1c2ssc1=O	1.4 µM
COc1cc(NCc2ccccc2)c2ncn(C(C)C)c2c1	inactive
Cc1ccc(-n2sc3ccccc3c2=O)cc1	8.63 µM
COCCn1nnnc1C(c1cc2cc(OC)c(OC)cc2[nH]c1=O)N1CCN(c2ccc(O)cc2)CC1 (stereo not drawn)	inactive
O=C1NC(=S)NC(=O)C1=Cc1ccc(Br)s1	7.9 µM
COc1ccc(CCn2c(NN)nc3c2c(=O)[nH]c(=O)n3C)cc1	7.35 µM
CCC(=O)OCCNc1cc(Sc2nc3ccccc3s2)c2nonc2c1[N+](=O)[O-]	16.1 µM
Cn1c(=O)c2c([nH]c(=S)n2CCCc2ccccc2)n(C)c1=O	19.5 µM
O=S(=O)(Nc1cccc2cccnc12)c1ccccc1	7.08 µM
CC1(OC(=O)C2CCCC2)C(=O)C=C2C=C(c3ccsc3)N(CC3CC3)C=C2C1=O (stereo not drawn)	7.8 µM
COc1cc(/C=C2\CC/C(=C\c3cc(OC)c(O)c(OC)c3)C2=O)cc(OC)c1O	17.1 µM
CN(C)c1ccc(Cc2cc3c(O)ccc(O)c3cc(Cc3ccc(N(C)C)cc3)c2=O)cc1	2.05 µM
CCOC(=O)c1c(OCC)[nH]c2c1cc(O)c1ccccc12	inactive
COc1ccc(C(=O)/C=C2\Sc3ccccc3N2C)cc1	7.94 µM
COc1cc(NCCCn2cnc3c(OCc4ccccc4)ncnc32)cc(OC)c1OC	> 80 µM (inactive)
O=[N+]([O-])c1cccc(SSc2cccc([N+](=O)[O-])c2)c1	7.67 µM
COc1c2ccoc2c(OCC=C(C)C)c2oc(=O)ccc12	inactive
O=C1Nc2cc(C(=O)NCCCN3CCCC3)ccc2S/C1=C\c1ccccc1	9.3 µM
NS(=O)(=O)c1ccc(-c2ccc(C=C3C(=O)NC(=O)NC3=O)o2)cc1	3.14 µM
COc1cc(OC)c(C2CC(=O)N3CN(c4ccccc4)CSC3=C2C#N)cc1OC (stereo not drawn)	11.5 µM
COc1ccc(NC(=S)N(CCC(C)C)C2CCN(C(C)C)CC2)cc1Cl	14.3 µM
CCc1ccc(S(=O)(=O)Nc2cc(SCC(=O)O)c(O)c3ccccc23)cc1	5.63 µM
CCC(=O)OCOc1ccc(/C=C2/CCC(CN(C)C)C2=O)cc1 (stereo not drawn)	6.86 µM

Compound	IC50
CCOC(=O)c1c(C2COc3ccccc3O2)csc1NC(=O)c1ccco1 (stereo not drawn)	14.2 µM
O=C(COc1ccccc1F)OCC(=O)c1ccc([N+](=O)[O-])cc1	12.4 µM
COc1ccccc1N1CSC2=C(C#N)C(c3ccc(SC)cc3)CC(=O)N2C1 (stereo not drawn)	10.6 µM
CC1=C(C)CS(=O)N(S(=O)(=O)c2ccc(Cl)cc2)C1 (stereo not drawn)	inactive
O=C1CCN(c2ccccc2)N1	1.34 µM
CC(C)c1nnc(NC(=O)c2cc3ccccc3o2)s1	16.5 µM
Cc1c(N=C2C=C(Br)C(=O)C(Br)=C2)c(=O)n(-c2ccccc2)n1C	7.32 µM
O=C(Nc1nc(-c2ccncc2)cs1)C1COc2ccccc2O1 (stereo not drawn)	inactive
Cc1c(/C=C/C(=O)c2ccc(Cl)s2)cnn1C	9.12 µM
CC1(OC(=O)C2CCCC2)C(=O)C=C2C=C(c3ccsc3)N(Cc3ccc4c(c3)OCO4)C=C2C1=O (stereo not drawn)	11.1 µM
Cc1cc(N=NC(=O)c2ccccc2O)c2ccccc2c1O	inactive
COC(=O)CCC(=O)OC1(C)C(=O)C2=CN(c3ccccc3)C(c3ccc(OC)cc3)=CC2=C(Br)C1=O (stereo not drawn)	3.16 µM
C[C@]12CC[C@@H]3c4cc(O)c(O)cc4CC[C@H]3[C@@H]1CC[C@@H]2O	inactive
COc1ccc(S(=O)(=O)Nc2cc(SCC(=O)O)c(O)c3ccccc23)cc1	2.03 µM
CC(=O)OCCCNc1cc(Sc2nc3ccccc3s2)c2nonc2c1[N+](=O)[O-]	3.92 µM
COc1ccc(N=C2C(=S)N(c3ccc(OC)cc3)C(=NS(=O)(=O)c3ccccc3)N2c2ccccc2)cc1	2.38 µM
Cn1c2ccccc2c2ccc3c(c21)C(=O)C=CC3=O	> 80 µM (inactive)
COc1ccc(CCn2c(NN=C(C)C)nc3c2c(=O)[nH]c(=O)n3C)cc1	4.82 µM
CN=c1scc(C)n1/N=C/c1ccc(O)c(O)c1O	3.98 µM
O=c1c2ccccc2sn1-c1ccc(Cl)cc1Cl	3.98 µM
COc1ccc(CN(C)S(=O)(=O)c2nnc(NC(=O)c3ccc(C)cc3)s2)cc1OC	7.6 µM
O=C(COC(=O)c1cnccn1)c1ccc([N+](=O)[O-])cc1	12.2 µM
CCOC(=O)C1CCCN(C(=O)Cn2sc3nc(C)cc(C)c3c2=O)C1 (stereo not drawn)	3.15 µM
C=CCN=c1scc(-c2ccco2)n1/N=C/c1ccc(O)c(O)c1O	inactive
NNC(=O)CN1C(c2ccccc2Br)=Nc2ccc(Br)cc2C1c1ccccc1 (stereo not drawn)	3.38 µM
Cc1ccc(S(=O)(=O)/N=C2/C=C(C3C(=O)CC(C)(C)CC3=O)C(=O)c3ccccc32)cc1	14.1 µM

Compound	IC50
CCC(C)N(CCNC(=O)c1ccc2c(c1)NC(=O)c1ccccc1S2)C1CCCCC1 (stereo not drawn)	6.48 µM
C/C(Cn1nnc([N+](=O)[O-])n1)=N\NC(=O)c1ccc(O)cc1	14.6 µM
Cc1ccc(-c2nc(N3CCOCC3)s[n+]2-c2ccccc2)cc1	5.65 µM
CCOC(=O)c1c(C)n(-c2ccc(C)cc2)c2c(C(C(C)=O)C(=O)O)c(Br)c(O)c(O)c12 (stereo not drawn)	2.76 µM
O=c1[nH]c2ccc(NCc3ccccc3OCc3ccc(Cl)cc3)cc2[nH]1	> 80 µM (inactive)
Cc1ccc2nc(-c3ccc(NC(=S)NC4CC(C)(C)NC(C)(C)C4)cc3)sc2c1	2.39 µM
Cc1cc(C)c(NC(=S)NCC2CCN(C(C)c3ccccc3)C2)c(C)c1 (stereo not drawn)	14.8 µM
CCOC(=O)c1ccc(/[N+]([O-])=C/c2ccccc2)cc1	2.69 µM
CC(C)(C)NC(=O)COc1ccc(CNc2ccc3[nH]c(=O)[nH]c3c2)cc1	11.7 µM
NS(=O)(=O)c1ccc(N/N=C/c2ccc(O)c(O)c2O)c([N+](=O)[O-])c1	5.7 µM
ClC(Cl)(c1nnnn1-c1ccccc1)c1nnnn1-c1ccccc1	3.8 µM
COc1cc(N)c2ncccc2c1Cl	6.92 µM
COc1cc(C(=O)ON=C2C=C(C)C(=O)C(C)=C2)cc(OC)c1OC	5.09 µM
O=[N+]([O-])c1ccc(-[n+]2ccc3ccccc3c2)c([N+](=O)[O-])c1	8.26 µM
CCc1c(C(=O)Nc2ccccc2)c(C)[nH]c(=S)c1C#N	inactive
COc1ccc2ccccc2c1C1CC(=O)N2CN(C3CCCCC3)CSC2=C1C#N (stereo not drawn)	14.7 µM
Cc1cc(C)c[n+](C2=C([O-])c3ccccc3C(=O)/C2=N\S(=O)(=O)c2cccs2)c1	15.3 µM
NC(=O)N/N=C/c1ccc(-n2nncc2-c2ccc(Cl)cc2)cc1	11.8 µM
Cc1c(C(=O)N(Cc2ccccc2Cl)C2CCS(=O)(=O)C2)oc2ccccc12 (stereo not drawn)	4.36 µM
Cc1ccc(NC(=O)Cn2sc3ccccc3c2=O)cc1	4.24 µM
N#Cc1ccc2c(=O)n(-c3ccccc3)sc2c1	3.86 µM
CCn1c(SCC(=O)Nc2ccccc2OC)nnc1-c1cnccn1	inactive
CCN(CC)CCn1c2ccccc2c(=O)c2c(O)ccc(O)c21	2.39 µM
COc1cc(O)c(C(=O)O)c(-c2cc(O)c(O)cc2C)c1	3.75 µM
COc1cc(N=Cc2c(CO)cnc(C)c2O)cc(OC)c1OC	19.6 µM
O=C(Cn1sc2ccccc2c1=O)NC12CC3CC(CC(C3)C1)C2	1.79 µM
